Experimental data from patent publication US20050222266A1, “2-indanylamino derivatives for the therapy of chronic pain” (priority 2002, published 2005).
Structures can show the parent of a compound that is named as a salt.

Experiments:
MAO (mono amino oxidase) = experiment: MAO inhibiting activity; assay type: biochemical
[1] = test system: cold allodynia produced by CCI; experiment: Chronic Constriction Injury (CCI) model, cold allodynia; assay type: in vivo, rat
Procedure: The potential analgesic activity of CHF 3381 was evaluated the Chronic Constriction Injury (CCI) model described by Bennett et al (Pain 1988, 33: 87-107). Briefly, the rat left common sciatic nerve was exposed, and proximal to the sciatic trifurcation about 10 mm of nerve was freed of adhering tissue and four ligatures (4.0 silk ) were loosely tied around it with about 1 mm of spacing.
Two tests of hind limb withdrawal to thermal and cold stimuli were employed in this study. Each test was repeated on both the operated hind paw and the controlateral hind paw.
Cold allodynia was assessed in operated rats, confining them into a clear plastic cylinders placed upon a metal floor chilled by an underlying water bath. A thermistor placed on the floor indicated a surface temperature of about 5° C. In this experimental condition, after the ligation operated rats respond by lifting the affected hind paw elevated above the floor. […] A maximum cut-off time of 20 sec was set to avoid any possible interference with the sensitivity of the animal to respond to subsequent exposure to the cold stimulus. Animals were pre-screened twice with 20 min interval between tests, in order to select for animals displaying clear signs of cold allodynia, i.e. animals with a paw withdrawal latency on the ligated side of <13 sec in both trials.
The animals were then assigned to groups consisting of at least 10 animals per group. CHF 3381 (10-30-60 mg/kg i.p.) or vehicle were administered to animals 7-14 days after ligation and cold allodynia tested 1 and 2 hours after treatment. CHF 3381 also reversed cold allodynia produced by CCI. This effect was again observed to be both time- and dose-dependent with the results generally concurring with those from the thermal hyperalgesia studies. The effect was maximum at 60-120 min after the administration and significant at the two higher tested doses (Table 1).

[2] = test system: formalin-induced licking and flinching; experiment: mice paw formalin test, acute treatment; assay type: in vivo; conditions: for Late phase licking/flinching time: 10 to 40 min; for Early phase licking/flinching time: first 5 min
Procedure: (§1) The mice paw formalin test was performed as described by Wheeler-Aceto et al. (Psychopharmacology 104:35-44, 1991). Briefly, the day before the formalin injection, mice were placed individually into clear plastic cylinders for 30 minutes of adaptation. The day of testing 20 μl of 1% formalin was injected into the plantar surface of the left hind paw and the animals were again placed into the plastic cylinder for the behavioural observation. The amount of time, in seconds, the animals spent licking and flinching (L/F) the injected paw for the first 5 min (early phase), and then from 10 to 40 min(late phase) after formalin injection, was used as measurement of intensity of pain. CHF 3381 10-100 mg/kg i.p. and 25-200 mg/kg p.o. or the corresponding vehicles, were administered 15 and 30 min before formalin injection, respectively.

[3] = test system: formalin-induced licking and flinching; experiment: mouse formalin test, 9 day treatment (tolerance); assay type: in vivo, mice
Procedure: as §1
Moreover, the formalin test was used to examine whether tolerance develops with respect to the antihyperalgesic effect of CHF 3381 after chronic treatment in comparison with the standard opioid morphine. Briefly, mice were divided randomly into five groups (12 mice per group) and administered once daily for 8 days as follows: three groups with saline i.p., one group with CHF 3381 60 mg/kg i.p. and one group with morphine 20 mg/kg i.p. On ninth day these groups were treated in following way: one saline pre-treated group was treated with saline i.p. (g1); two saline pre-treated group were treated with CHF 3381 30 mg/kg i.p. (g2) and with morphine 6 mg/kg i.p. (g3), respectively; the group pre-treated with CHF 3381 60 mg/kg was treated with CHF 3381 30 mg/kg i.p. (g4) and the group pre-treated with morphine 20 mg/kg was treated with morphine 6 mg/kg i.p.(g5), a dose that was previously shown to be active in the formalin test. CHF 3381 and morphine were administered 15 and 30 min before formalin injection, respectively.

[4] = test system: formalin-induced flinching and licking behavior; experiment: formalin model of inflammatory pain in rats; assay type: in vivo
[5] = test system: acute pain, hot plate 51° C.; experiment: hot-plate test, rats; assay type: in vivo; conditions: 15 min
Procedure: The effect of CHF 3381 was studied in acute pain with hot-plate test described by Eddy et al (1953). The test was performed on an electrically heated and thermostatically controlled copper surface, set to a temperature of 55 or 51° C. with mice and rats, respectively.
The animals were confined to the hot plate by a transparent observation chamber and the latency to the response consisting of licking of the hind paws, was measured. A cut-off period of 60 sec was used to avoid tissue damage.
After i.p. administration, CHF 3381 (30-45-60 and 100 mg/kg in mouse; 30-37-45 and 60 mg/kg in rats), produced a significant and dose-dependent increase in the latency of the hindpaw licking response compared to vehicle-treated animals (Table 6).

NMDA receptors channels = conditions: displacement of [3H]-TPC; cited from earlier work
seizure models = conditions: in vivo; cited from earlier work
rat MES model = conditions: cited from earlier work
[6] = G2: 30 mg/kg i.p. on ninth day after 8 days saline
[7] = G4: 30 mg/kg i.p. on ninth day after 8 days CHF 3381 60 mg/kg i.p.

Compound: NC(=O)CNC1Cc2ccccc2C1 [CHF 3381, N-2(indanyl)-glicinamide hydrochloride]
- inhibiting activity towards MAO (MAO (mono amino oxidase)): inhibiting activity
- Allodynia paw withdrawal latency ([1]; 10 mg/kg i.p., 60 min): 7.75 ± 1.36 s
- Allodynia paw withdrawal latency ([1]; 10 mg/kg i.p., 120 min): 8.71 ± 1.88 s
- Allodynia paw withdrawal latency ([1]; 30 mg/kg i.p., 60 min): 9.96 ± 1.70 s
- Allodynia paw withdrawal latency ([1]; 30 mg/kg i.p., 120 min): 9.89 ± 1.70 s
- Allodynia paw withdrawal latency ([1]; 60 mg/kg i.p., 60 min): 11.2 ± 1.33 s
- Allodynia paw withdrawal latency ([1]; 60 mg/kg i.p., 120 min): 12.68 ± 1.63 s
- Late phase licking/flinching time ([2]; 10 mg/kg i.p.): 165 ± 26 s
- Early phase licking/flinching time ([2]; 10 mg/kg i.p.): 95 ± 8 s
- Late phase licking/flinching time ([2]; 25 mg/kg p.o.): 92 ± 25 s
- Early phase licking/flinching time ([2]; 25 mg/kg p.o.): 99 ± 8 s
- Late phase licking/flinching time ([2]; 30 mg/kg i.p.): 58 ± 1 s
- Early phase licking/flinching time ([2]; 30 mg/kg i.p.): 59 ± 9 s
- Late phase licking/flinching time ([2]; 50 mg/kg p.o.): 30 ± 9 s
- Early phase licking/flinching time ([2]; 50 mg/kg p.o.): 72 ± 7 s
- Late phase licking/flinching time ([2]; 60 mg/kg i.p.): 17 ± 5 s
- Early phase licking/flinching time ([2]; 60 mg/kg i.p.): 32 ± 7 s
- Late phase licking/flinching time ([2]; 100 mg/kg i.p.): 2 ± 2 s
- Early phase licking/flinching time ([2]; 100 mg/kg i.p.): 17 ± 4 s
- Late phase licking/flinching time ([2]; 100 mg/kg p.o.): 23 ± 16 s
- Early phase licking/flinching time ([2]; 100 mg/kg p.o.): 46 ± 7 s
- Late phase licking/flinching time ([2]; 200 mg/kg p.o.): 12 ± 10 s
- Early phase licking/flinching time ([2]; 200 mg/kg p.o.): 47 ± 4 s
- acute and tonic formalin-induced licking response ([2]; mice, 100 mg/kg p.o. and 60 mg/kg i.p.): almost completely blocked
- Early phase [3, 6]: 53 ± 8 s
- Late phase [3, 6]: 91 ± 21 s
- Early phase [3, 7]: 56 ± 6 s
- Late phase [3, 7]: 74 ± 21 s
- antihyperalgesic action after chronic treatment (tolerance) ([3]; once daily for 8 days, test on ninth day): lack of development of tolerance
- flinching and licking behavior during the early and late nociceptive phases [4]: clearly suppressed
- latency of the hindpaw licking response ([5]; 30 mg/kg i.p.): 22.44 ± 2.07 s
- latency of the hindpaw licking response ([5]; 37 mg/kg i.p.): 26.24 ± 2.22 s
- latency of the hindpaw licking response ([5]; 45 mg/kg i.p.): 39.59 ± 3.56 s
- latency of the hindpaw licking response ([5]; 60 mg/kg i.p.): 42.80 ± 3.27 s
- Ki (NMDA receptors channels): 8.8 µM
- antagonism of 4-aminopyridine- and bicuculline-induced tonic seizures (seizure models): weaker antagonist
- behavioral effects and lethality of systematically administered NMDA (seizure models): antagonize
- effect against maximal electroshock seizures, picrotoxin- and NMDA-induced hind limb tonic extension (seizure models): very effective
- effect against pentylentetrazole- and picrotoxin-induced clonic seizures (seizure models): ineffective
- anti-convulsivant activity (rat MES model): anti-convulsivant activity
